The results in this text go back to a melting point compilation (Tetko et al.; mined from patent text by program, amines drawn as free bases though some values may be those of a salt).

On to `CC(=O)N1CCn2nc(-c3ccc(F)cc3)c(-c3ccncc3)c2N1`, for which the melting point lay within 216 to 218 °C. For `CCOC(=O)C=Cc1cc(C=CC(N)=O)cc(C(O)c2ccc(F)cc2)c1` (centres undefined), the melting point is 197 to 199 °C. Then `Cn1cc(C2=C(c3c4n(c5ccccc35)CCC(C#N)C4)C(=O)OC2=O)c2ccccc21` (centres undefined), with 309 to 311 °C; and `NC(=O)c1nc(-c2cccc(O)c2)nc2c1[nH]c(=O)n2-c1ccccc1-c1ccccc1`, with 293 to 296 °C; and `COc1ccc(C(=O)NC[C@@H](C(=O)NO)N2CCN(S(C)(=O)=O)CC2)cc1`, with 158 °C. `CC(=O)Nc1ccc2c(c1)S(=O)(=O)N(CCCCN1CCN(c3ncccn3)CC1)C2=O`: the melting point was 162 °C. The same measure for `O=C(c1cccc(O)c1)c1nn(C2CCCC2)c2c(C(F)(F)F)cccc12`: 152 °C; for `CS(=O)(=O)NC(=O)CCCC[C@H]1CCSS1`: 71 to 73 °C. Consider `CCCCCCCCC(O)Cc1ccc(OCc2ccccc2)c(OCc2ccccc2)c1` (centres undefined), for which the melting point was in the range of 55 to 57 °C. `CCCCN1CCC(C(=O)O)(S(=O)(=O)c2ccc(OCCC(C)C)cc2)CC1`: the melting point is 188 °C. Then `NC(=O)Cc1cccc(C(=O)c2ccccc2)c1N`, with 178 to 180 °C; and `O=C(CCC1CCNCC1)c1cc2c3c(c1)CCN3C(=O)CC2`, with 114 to 115 °C; and `Cc1nc2cccc(OCC(C)(C)C(=O)NCC(C)C)c2c(N)c1C(=O)O`, with 176 to 179 °C. Consider `CC(C)NC1=NS(=O)(=O)c2cc(F)c(Cl)cc2N1`, for which the melting point lay in the range of 282 to 285 °C. The compound `O=C(Nc1c(C(O)(C(F)(F)F)C(F)(F)F)ccc2ccccc12)c1ccc(Cl)c(Cl)c1` displayed a melting point of 174 to 175 °C.

`COC(=O)c1cccc(CN2CCN(c3nc(C)c(C(C)=O)s3)C2=O)c1`: the melting point is 122 to 124 °C.

For the compound `OC(COc1ccc(F)cc1)CN1CCC(O)(c2ccc(Cl)cc2)CC1` (centres undefined), the melting point was in the range of 103 to 105 °C. `O=C(NN1CCCCC1)c1nc(-c2ccc(Cl)cc2Cl)c(-c2ccc(Cl)cc2)o1` gave a melting point of 165 °C. Turning to `CC(=O)SCc1nccc(SCCCSc2ccc3ncc([N+](=O)[O-])n3n2)c1C`, the melting point is 138 to 140 °C. In turn, `C[N+]([O-])=C(Cn1cncn1)c1ccccc1` came in with a melting point of 117 to 119 °C. The compound `COc1cc2c(cc1C(F)(F)F)N(C(=O)Nc1cc(Br)c(C)c(-c3cccnc3)c1)CC2` yielded a melting point of 216 to 218 °C. `Clc1ccccc1Oc1c(Cl)ncnc1Cl` gave a melting point of 76 to 77 °C. Consider `CC(C)(C)OC(=O)CN(C(=O)CN1C(=O)c2ccccc2C1=O)c1ccccc1C(=O)N1CCCc2ccccc21`, for which the melting point turned out to be 150 °C. The compound `CC(C)n1c(=O)[nH]c2ncc(-c3ccc(O)cc3)nc21` displayed a melting point of 323 to 324 °C. With `CN1Cc2ccccc2C(Oc2ccc(C#N)cc2)C1` (centres undefined), the melting point fell in the range of 131 to 132 °C. `COc1ccc(C2(C)C(=O)Nc3cc(N4CCN(C)CC4)cc(Cl)c3C2=O)cc1` (centres undefined) yielded a melting point of 201 to 202 °C.

Take `CC(C)C(CC(O)C(CC1CCCCC1)NC(=O)C(Cc1c[nH]cn1)NC(=O)C(N)Cc1ccccc1)C(O)CN(Cc1ccccn1)C(=O)OCc1ccccc1` (mixture of isomers): the melting point worked out at 94 °C. Regarding `COc1ccc(N(c2ccc(-c3ccc(N(c4ccc(OC)cc4)c4cccc(C(F)(F)F)c4)cc3)cc2)c2cccc(C(F)(F)F)c2)cc1`, the melting point turned out to be 134 °C. Compound `Cc1oc(-c2ccccc2)nc1COc1ccc(CCCC2SC(=O)NC2=O)cc1C(F)(F)F` (centres undefined) gave a melting point of 154 to 155 °C. As for `CN(C)Cc1cc(C(=O)c2ccc(Cl)s2)cc(C(C)(C)C)c1O`, the melting point lay in the range of 137 to 138 °C. In turn, `Nc1sc2c(c1C(=O)c1ccco1)CCCC2` came in with a melting point of 121 to 122 °C. In turn, `CC(C)n1nc(-c2c(-c3ccccc3)nc(N)nc2N2CCCC2)ccc1=O` showed a melting point of over 300 °C.

Regarding `CN(CC(=O)c1ccc(Br)cc1)C(=O)OC(C)(C)C`, the melting point was in the range of 87 to 90 °C. On to `COCCOc1cc2ncnc(Cl)c2cc1OCCOC`, for which the melting point is 108 to 109 °C. In turn, `Fc1ccc(-n2c3c(c4cc(F)ccc42)CNCC3)cc1` returned a melting point of 126 to 129 °C. `CONC(=O)Nc1ccc(-c2sc3c(c2CN(C)C(C)c2ccccn2)c(=O)n(-c2ccccc2)c(=O)n3Cc2c(F)cccc2F)cc1` (centres undefined) registered a melting point of 146 to 148 °C.

`COC(=O)CCc1cc2cc(Cl)ccc2n1S(=O)(=O)c1ccc(NC(C)=O)cc1` yielded a melting point of 154 to 157 °C. For `O=C1c2nccc(Cl)c2C(=O)c2c(-c3ccccc3NC(=O)C(F)(F)F)ccnc21`, the melting point was 152 °C. The same measure for `Cc1nc(Sc2cccc(C(F)(F)F)n2)sc1CC(=O)O`: 162 to 164 °C.

Take `CCOCc1nc2c(N)nc3cccnc3c2n1CC(C)(C)O`: the melting point lay within 157 to 159 °C.

With `CSc1ccc(C=O)c(Cl)c1`, the melting point is 76 to 77 °C.

With `COC(=O)c1cc(C(=O)OC)cc(P(c2ccccc2)c2ccccc2)c1`, the melting point is 103 to 104 °C.

The compound `O=c1cc(-c2ccccc2)oc2cc(OCCCCCCN3CCC(O)CC3)ccc12` registered a melting point of 130 to 131 °C. The same measure for `CC(=O)N1c2ccc(-c3ccc(CN4CCCCC4)cc3)cc2C(Nc2ccc(F)cc2)CC1C` (centres undefined): 106 °C; for `CCN1CCN(c2nc(-c3ccccc3)nc3sc(C#N)c(C)c23)CC1`: 178 to 179 °C; for `CC(=O)NC(COC1CCN(c2nc3ccc(OCC4CC4)cc3o2)CC1)C(F)(F)F` (centres undefined): 126 to 127 °C.

In turn, `COc1cc(O)ccc1/C=C/c1ccc(O)cc1` registered a melting point of 192 to 194 °C. In the case of `Cc1ccc2c(c1)oc1c(C(=O)NC34CC5CC(CC(C5)C3)C4)nn(-c3ccc(Cl)cc3Cl)c12`, the melting point was 210 to 212 °C.

`Cc1nc(C)c(Cl)c(NCc2nccc(SCCCSc3sccc3[N+](=O)[O-])c2C)n1` showed a melting point of 174 to 180 °C.

As to `COc1ccc(-n2cc(C#N)c(=O)[nH]c2=O)cc1`, the melting point fell in the range of 304 to 306 °C. The same measure for `CC(C)(C)OC(=O)c1cccc(-c2ccc([N+](=O)[O-])cc2)c1`: 110 to 111 °C; for `CC1(S(=O)(=O)c2ccccc2)CCc2nc(-c3ccccc3)[nH]c(=O)c2C1` (centres undefined): over 250 °C; for `COC(=O)Nc1nc2ccccc2n1C(=O)NC1CC(C)(C)CC(C)(N(C)C(=O)n2c(NC(=O)OC)nc3ccccc32)C1` (centres undefined): 82 to 83 °C. In turn, `CNc1nc(-c2cccc(NC(=O)C3CC3)c2)c2cc(OC)c(OC)cc2n1` came in with a melting point of 205 to 207 °C.

Regarding `COc1cccc([C@H]2O[C@H](CC(=O)Nc3nc(C)c(C(=O)OC(C)(C)C)s3)C(=O)N(CC(C)(C)COC(C)=O)c3ccc(Cl)cc32)c1OC`, the melting point was 211 to 213 °C. The same measure for `Nc1ccc2c(c1)ncn2-c1ccccc1O`: 202 to 203 °C. As to `O=C(c1ccc(F)cc1)C1CCN(CC2CC(c3ccc4[nH]c(=O)oc4c3)=NO2)CC1` (centres undefined), the melting point was 188 to 190 °C. The same measure for `CON=C(C1=Nc2ccc(Cl)cc2C(c2ccccc2F)=NC1)[N+](=O)[O-]`: 130 to 133 °C; for `O=C(O)CNC1CCCc2ccccc21` (centres undefined): 227 °C.

As usually defined, the melting point is the temperature, or range, at which the solid turns liquid.
